These results are taken from ChEMBL document CHEMBL3217536, “Structureactivity relationships of gramicidin S analogs containing (-3-pyridyl)-,-dehydroalanine residues on membrane permeability” (Medchemcomm, 2011).

SMILES strings stand for the structures. In brackets after ≈: the same amount, converted by molar mass. Activity calls are given as the source filed them. The rule behind the calls is not given here. *1 amine or outer side, *2 acyl side, *3 side chain or, on linkers, in order; H or OH if unused. Where a SMILES comes first, the peptide text is derived from it. [ ]: non-standard residue; d: D form. X1 = O=C(/C(=C/c1cccnc1)N[*:1])[*:2]; X2 = O=C(/C(=C/c1ccccc1)N[*:1])[*:2]; d3Pal = N[C@H](Cc1cccnc1)C(=O)O; Orn = NCCC[C@H](N)C(=O)O

Data set [1] has as its system Staphylococcus aureus. Kind of data set: Antimicrobial activity against Staphylococcus aureus FDA 209P after 20 hrs by liquid microdilution method. It counts as functional. A general note: In broth dilution the organism is exposed to a series of concentrations in liquid medium.
In data set [2] the test system is Escherichia coli. In words: Antimicrobial activity against Escherichia coli K-12 W3110 after 20 hrs by liquid microdilution method. In kind it is functional. The following applies: K-12 W3110, 20 h.
Data set [3] can be described thus: Hemolytic activity against human erythrocytes. In kind it is ADME, cell-based, Erythrocyte. Conditions: read-out: ED50 (the source's name).
Data set [4] has as its system Staphylococcus aureus. Kind of data set: Induction of cytoplasmic membrane disruption in Staphylococcus aureus FDA 209P assessed as change in potassium permeability after 30 mins. It counts as functional. The following applies: for EC50: 0.5 h, read-out: ED50 (the source's name).
The subject of data set [5] is Staphylococcus aureus. In words: Antimicrobial activity against Staphylococcus aureus FDA 209P assessed as decrease in cell survival after 30 mins by colony counting method. In kind it is functional. Conditions: 0.5 h.
In data set [6] the test system is Escherichia coli. Kind of data set: Induction of cytoplasmic membrane disruption in Escherichia coli K-12 W3110 assessed as change in potassium permeability after 30 mins. It counts as functional. Conditions: K-12 W3110, 0.5 h, read-out: ED50 (the source's name).
Data set [7] relates to Escherichia coli. Kind of data set: Antimicrobial activity against Escherichia coli K-12 W3110 assessed as decrease in cell survival after 30 mins by colony counting method. In kind it is functional. The following applies: K-12 W3110, 0.5 h.
Data set [8] deals with Escherichia coli. Kind of data set: Antimicrobial activity against Escherichia coli K-12 W3110 after 20 hrs by liquid microdilution method in presence of PMBN. In kind it is functional.

On to `CC(C)C[C@@H]1NC(=O)[C@H](CCCN)NC(=O)[C@H](C(C)C)NC(=O)[C@@H]2CCCN2C(=O)[C@@H](Cc2cccnc2)NC(=O)[C@H](CC(C)C)NC(=O)[C@H](CCCN)NC(=O)[C@H](C(C)C)NC(=O)[C@@H]2CCCN2C(=O)[C@@H](Cc2cccnc2)NC1=O` (cyclo(L[d3Pal]PV[Orn]L[d3Pal]PV[Orn])), for which the minimal inhibitory concentration (MIC) with Staphylococcus aureus [1] and against Escherichia coli [2] was 50 µM (≈ 57.2 µg/mL) throughout. Also, the HC50 in data set [3] is above 100 µM. Further, the EC50 was 20 µM with Staphylococcus aureus [4] and 50 µM with Escherichia coli [6]. Moreover, the LC50 with Staphylococcus aureus [5] was 20 µM; in the data set with Escherichia coli [7], 100 µM.
As to `CO[C@@H]1[C@@H](OC(N)=O)[C@@H](O)[C@H](Oc2ccc3c(O)c(NC(=O)c4ccc(O)c(CC=C(C)C)c4)c(=O)oc3c2C)OC1(C)C`, in the data set on Escherichia coli [8], the result was Active.
As for `CC(C)C[C@@H]1NC(=O)[C@H](CCCN)NC(=O)[C@H](C(C)C)NC(=O)[C@@H]2CCCN2C(=O)[C@@H](Cc2ccccc2)NC(=O)[C@H](CC(C)C)NC(=O)[C@H](CCCN)NC(=O)[C@H](C(C)C)NC(=O)[C@@H]2CCCN2C(=O)[C@@H](Cc2ccccc2)NC1=O` [GRAMICIDIN S] (cyclo(L[dF]PV[Orn]L[dF]PV[Orn])), the minimum inhibitory concentration (MIC) against Staphylococcus aureus [1] came to 3 µM (≈ 3.42 µg/mL); against Escherichia coli [2], 13 µM (≈ 14.8 µg/mL); in the data set with Escherichia coli [8] (K-12 W3110, 20 h), 4 µg/mL. Moreover, the HC50 in data set [3] is 5 µM. Also, in the data set on Staphylococcus aureus [4], the Activity entry is “Dose-dependent effect”. The EC50 with Staphylococcus aureus [4] is 2 µM; in the data set with Escherichia coli [6] it was 20 µM. In addition, the median lethal concentration (LC50) in the data set on Staphylococcus aureus [5] turned out to be 5 µM; in the data set on Escherichia coli [7] it was 20 µM.
In the case of `CC(C)C[C@@H]1NC(=O)[C@H](C)NC(=O)[C@H](C(C)C)NC(=O)[C@@H]2CCCN2C(=O)/C(=C/c2cccnc2)NC(=O)[C@H](CC(C)C)NC(=O)[C@H](CCCN)NC(=O)[C@H](C(C)C)NC(=O)[C@@H]2CCCN2C(=O)/C(=C/c2cccnc2)NC1=O` (cyclo(AL[X1]PV[Orn]L[X1]PV)), the minimal inhibitory concentration (MIC) turned out to be 13 µM (≈ 14.3 µg/mL) against Staphylococcus aureus [1] and 106 µM (≈ 116 µg/mL) in the data set on Escherichia coli [2]. The HC50 in data set [3] was 50 µM. Besides, the values for the EC50 with Staphylococcus aureus [4] and in the data set with Escherichia coli [6] were 10 µM and above 100 µM, respectively. Besides, the LC50 in the data set with Staphylococcus aureus [5] was 10 µM; with Escherichia coli [7], above 100 µM.
For `CC(C)C[C@@H]1NC(=O)[C@H](CCCN)NC(=O)[C@H](C(C)C)NC(=O)[C@@H]2CCCN2C(=O)/C(=C/c2ccccc2)NC(=O)[C@H](CC(C)C)NC(=O)[C@H](CCCN)NC(=O)[C@H](C(C)C)NC(=O)[C@@H]2CCCN2C(=O)/C(=C/c2ccccc2)NC1=O` (cyclo(L[X2]PV[Orn]L[X2]PV[Orn])), the results for the minimum inhibitory concentration (MIC) with Staphylococcus aureus [1] and with Escherichia coli [2] were 3 µM (≈ 3.41 µg/mL) and 26 µM (≈ 29.6 µg/mL), respectively. Further, the HC50 in data set [3] was determined as 5 µM. The EC50 in the data set on Staphylococcus aureus [4] amounted to 5 µM; in the data set on Escherichia coli [6] it was 20 µM. In addition, the results for the 50% lethal concentration (LC50) with Staphylococcus aureus [5] and in the data set on Escherichia coli [7] were 5 µM and 20 µM, respectively.
As to `CC(C)C[C@@H]1NC(=O)[C@H](CCCN)NC(=O)[C@H](C(C)C)NC(=O)[C@@H]2CCCN2C(=O)/C(=C/c2cccnc2)NC(=O)[C@H](CC(C)C)NC(=O)[C@H](CCCN)NC(=O)[C@H](C(C)C)NC(=O)[C@@H]2CCCN2C(=O)/C(=C/c2cccnc2)NC1=O` (cyclo(L[X1]PV[Orn]L[X1]PV[Orn])), the minimum inhibitory concentration (MIC) was 6 µM (≈ 6.84 µg/mL) against Staphylococcus aureus [1] and 26 µM (≈ 29.6 µg/mL) in the data set on Escherichia coli [2]. Besides, in data set [3], the HC50 is above 100 µM. The Activity result in the data set on Staphylococcus aureus [4] was “Dose-dependent effect”. In addition, the results for the EC50 in the data set on Staphylococcus aureus [4] and in the data set with Escherichia coli [6] were 5 µM and 50 µM, respectively. In addition, the median lethal concentration (LC50) with Staphylococcus aureus [5] was 10 µM; in the data set with Escherichia coli [7], 50 µM. Further, the result in the data set with Escherichia coli [8] was inactive.
On to `CC(C)C[C@@H]1NC(=O)[C@H](CCCN)NC(=O)[C@H](C(C)C)NC(=O)[C@@H]2CCCN2C(=O)[C@@H](Cc2ccc(O)cc2)NC(=O)[C@H](CC(C)C)NC(=O)[C@H](CCCN)NC(=O)[C@H](C(C)C)NC(=O)[C@@H]2CCCN2C(=O)[C@@H](Cc2ccc(O)cc2)NC1=O` (cyclo(L[dY]PV[Orn]L[dY]PV[Orn])), for which the MIC was 3 µM (≈ 3.52 µg/mL) against Staphylococcus aureus [1] and 26 µM (≈ 30.5 µg/mL) in the data set with Escherichia coli [2]. Moreover, the HC50 in data set [3] amounted to 10 µM.
`CC(C)C[C@@H]1NC(=O)[C@H](CCCN)NC(=O)[C@H](C(C)C)NC(=O)[C@@H]2CCCN2C(=O)/C(=C/c2ccccc2)NC(=O)[C@H](CC(C)C)NC(=O)[C@H](CCCN)NC(=O)[C@H](C(C)C)NC(=O)[C@@H]2CCCN2C(=O)/C(=C/c2cccnc2)NC1=O` (cyclo(L[X2]PV[Orn]L[X1]PV[Orn])): the results for the MIC with Staphylococcus aureus [1] and against Escherichia coli [2] were 3 µM (≈ 3.42 µg/mL) and 26 µM (≈ 29.6 µg/mL), respectively. Besides, in data set [3], the HC50 came to 20 µM. Besides, the values for the EC50 in the data set with Staphylococcus aureus [4] and with Escherichia coli [6] were 5 µM and 50 µM, respectively. Further, the LC50 in the data set with Staphylococcus aureus [5] was found to be 10 µM; with Escherichia coli [7], 50 µM.
Turning to `CC(C)C[C@@H]1NC(=O)[C@H](C)NC(=O)[C@H](C(C)C)NC(=O)[C@@H]2CCCN2C(=O)/C(=C/c2cccnc2)NC(=O)[C@H](CC(C)C)NC(=O)[C@H](C)NC(=O)[C@H](C(C)C)NC(=O)[C@@H]2CCCN2C(=O)/C(=C/c2cccnc2)NC1=O` (cyclo(AL[X1]PVAL[X1]PV)), the minimal inhibitory concentration (MIC) with Staphylococcus aureus [1] is 114 µM (≈ 120 µg/mL); in the data set on Escherichia coli [2], above 114 µM. In addition, in data set [3], the HC50 turned out to be 50 µM. In addition, the EC50 with Staphylococcus aureus [4] was 50 µM; in the data set on Escherichia coli [6], above 100 µM. Further, the LC50 in the data set on Staphylococcus aureus [5] is 50 µM; in the data set with Escherichia coli [7], above 100 µM.

As usually defined, the MIC is the least concentration at which growth counts as inhibited. For orientation: LC50 means the concentration lethal to half of the exposed cells or organisms.
